Measurements: publication PMC9144936, “New Cu^+2 Complexes with N-Sulfonamide Ligands: Potential Antitumor, Antibacterial, and Antioxidant Agents” (Molecules, 2022)

Experiments:
Type in all cases: cell-based
[1] = system: Escherichia coli ATCC 10536; test: Disk diffusion method, E. coli; details: complexes 5 µL of 1 mg/mL; 25 µg Amoxicillin, 5 µg Norfloxacin; 24 h, 37 °C
Description: The disk diffusion method was used to determine the antibacterial activity of the C1 and C2 copper complexes on four reference microbial strains, two Gram-positive (Staphylococcus aureus and Bacillus cerreus) and two Gram-negative (Escherichia coli and Pseudomonas aeruginosa) strains. The disk diffusion method was used to determine the antibacterial activity of the C1 and C2 copper complexes. The method was adapted for the purposes of the current study, according to the standards developed by the Clinical and Laboratory Standards Institute. Four reference microbial strains, two Gram-positive (Staphylococcus aureus ATCC […] and Bacillus cerreus ATCC 14579) and two Gram-negative (Escherichia coli ATCC 10536 and Pseudomonas aeruginosa ATCC 27853) strains, were used for in vitro susceptibility testing. These reference microbial strains were obtained from the American Type Culture Collection (ATCC, Manassas, VA, USA). As positive controls, Amoxicillin (Oxoid Ltd., Basingstoke, UK) and Norfloxacin (Sigma-Aldrich) were used. For each of the four species, an initial suspension of bacterial cultures was inoculated on nutrient agar plates (Merck KGaA, Darmstadt, Germany), incubated for 24 h at 37 ± 2 °C and resuspended in a physiological saline buffer to a […] concentration (on a 0.5 McFarland scale), and further inoculated on Muëller Hinton agar plates (Merck KGaA, Darmstadt, Germany). […] After inoculation, the medium surface was dried and 8 wells were radially drilled 1.5 cm from the outer edge, 3 cm apart. From aliquot samples of 1 mg/mL of each copper complex dissolved in DMSO and incorporated in sterile liquid medium, 5 μL was placed in each of the 8 wells and left for 30 min to diffuse into the agar plates. The plates were then incubated for 24 h at 37 ± 2 °C. Then, 25 μg Amoxicillin and 5 μg Norfloxacin served as a positive controls, while DMSO 0.75% was used as a negative control. Readings were conducted by measuring the diameter of the inhibition zone (Halo Zone Test, in mm). The germ sensitivity of the copper complexes was estimated by comparing the diameter of the inhibition area to that generated by the regular antibiotics with known inhibition values. […] All tests were triplicated, and the measured diameters of the inhibition zone were expressed (in mm) as mean ± standard deviation.

[2] = system: Bacillus cerreus ATCC 14579; test: MIC, serial broth microdilution, B. cerreus; details: 24 h, 37 °C
Protocol: (§1) The values of MIC, defined as the lowest concentration of antimicrobial complex that prevents visible growth of germs, are presented in Table S4 in the Supplementary Material. To quantify the copper complexes effectiveness as antibacterial agents, their minimum inhibitory concentrations (MICs) were determined using the serial broth microdilution method described by Quinn et al. and Markey et al.. The method was adapted for the purposes of the current study, according to the standards developed by the Clinical and Laboratory Standards Institute. The tests were performed on the same Gram-positive and Gram-negative reference microbial strains. Ten successive dilutions of the copper complexes solutions (1/2 to 1/1024) in nutrient broth (Merck KGaA, Darmstadt, Germany) were performed and then were placed in sterile microplates (one each for every copper complex). The microplates were incubated at 37 ± 2 °C for 24 h. Comparisons of the amount of bacterial growth in each well containing copper complexes solutions with the amount of growth in the growth control wells were performed and the maximal dilution for which the tested copper complexes inhibited bacterial growth was determined.

[3] = system: Pseudomonas aeruginosa ATCC 27853; test: MIC, serial broth microdilution, P. aeruginosa; details: 24 h, 37 °C
Protocol: as §1

[4] = system: human cervical carcinoma line (HeLa); test: MTT cytotoxicity assay, HeLa; details: HeLa cells
Protocol: (§2) Three cell lines were used to determine the cytotoxicity of the complexes, a human cervical carcinoma line (HeLa), a human radical growth phase melanoma cell line (WM35), and a normal fibroblastic epithelial cell line (HFL1) using the MTT method. The cells were exposed to C1 and C2 complexes in different concentrations (50, 25, 12.5, 2, and 0.2 µM) at 24, 48, and 72 h. As positive contro, cisplatin was used.
(§3) To determine the cytotoxicity of the copper complexes, three cell lines were used: a human cervical carcinoma line (HeLa), a human radical growth phase melanoma cell line (WM35), and a normal fibroblastic epithelial cell line (HFL1). The cell lines were obtained from ATCC (American Type Cell Collection, Manassas, VA 20110-2209, USA) and were maintained in DMEM (Sigma-Aldrich, Saint Louis, Missouri, USA) supplemented with 10% fetal bovine serum (Hyclone), 1 mM glutamine (Sigma-Aldrich), and 1% antibiotic antimycotic 100× (Sigma-Aldrich). The cells were cultured at 37 °C in an atmosphere of 5% CO2 and 95% relative humidity.
(§4) The cytotoxicity assays were performed using the MTT assay (3-(4,5-dimethylthiazol-2-yl)-2,5-diphenyl tetrazolium bromide-Sigma Aldrich). Cells were plated at a density of 1 × 10^5 cells/well in 96-well plates for 24 h in normal propagation media. The cultures were then exposed to C1 and C2 complexes in different concentrations (50, 25, 12.5, 2, and 0.2 µM). The complexes were first solubilized in DMSO (Sigma) and then serial dilutions in media were performed until the final concentration of DMSO was less than 1%. As a positive control, cisplatin (Ebewe Pharma Ges.m.b.H. Nfg. KG, Austria) was used, in the same concentrations as the complexes. As a negative control, cell lines cultivated in normal expansion medium with the same amount of DMSO added were used. The cellular viability was determined using the MTT assay at 24, 48, and 72 h, respectively. Formazan particles were solubilized with DMSO and absorbances were determined at 550 nm using a microplate reader (Bio-Rad, Hercules, CA, USA). The cytotoxic activity, expressed as IC50 values representing the complex solution required to inhibit 50% of the cell proliferation, were calculated from the calibration curve by nonlinear regression. Each experiment was carried out in triplicate.

[5] = system: normal fibroblastic epithelial cell line (HFL1); test: MTT cytotoxicity assay, HFL1; details: HFL1 cells
Protocol: as §2, §3, §4

## [Cu(N-(5-Ethyl--[1,3,4]-Thiadiazole-2-yl) Naphtalenesulfonamidate)2(py)2(H2O)] [C2]
[1]
  Halo Zone Test (diameter of the inhibition zone): 16 ± 0.21 mm
[2]
  MIC: 0.293 µg/mL
[3]
  MIC: 0.089 µg/mL
[4]; 24 h
  IC50: 8.79 ± 0.21 µM
[4]; 48 h
  IC50: 4.06 ± 0.05 µM
[4]; 72 h
  IC50: 1.45 ± 0.09 µM
[5]; 24 h
  IC50: 18 ± 1.08 µM
[5]; 48 h
  IC50: 5.55 ± 0.22 µM
[5]; 72 h
  IC50: 2.03 ± 0.04 µM

## [Cu(N-(5-(4-Methylphenyl)-[1,3,4]-Thiadiazole-2-yl) Naphtalenesulfonamidate)2(H2O)3] [C1]
[1]
  Halo Zone Test (diameter of the inhibition zone): 14 ± 0.11 mm
[2]
  MIC: 0.304 µg/mL
[3]
  MIC: 0.196 µg/mL
[4]; 24 h
  IC50: 33.18 ± 0.19 µM
[4]; 48 h
  IC50: 16.36 ± 0.12 µM
[4]; 72 h
  IC50: 6.47 ± 0.06 µM
[5]; 24 h
  IC50: 44.7 ± 0.51 µM
[5]; 48 h
  IC50: 7.38 ± 0.12 µM
[5]; 72 h
  IC50: 3.75 ± 0.15 µM
